Experimental data as given in patent publication US20210403435A1, “HERBICIDAL COMPOUNDS” (SYNGENTA CROP PROTECTION AG, priority 2018, published 2021).

Legend:
Assay in all cases: Post-emergence efficacy, glasshouse, evaluated after 13 days
Type in all cases: in vivo
[1] = system: Amaranthus palmeri (AMAPA); conditions: Amaranthus palmeri, 312 h; post-emergence application, 500 g/Ha, evaluated after 13 days; read-out: Control of weed species AMAPA (100=total damage to plant; 0=no damage to plant)
Outline: (§1)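 Injury assessed 13 days after a post-emergence spray, 0 = no damage and 100 = total damage. Spray liquid: compound in acetone/IF50 (Emulsogen EL360, N-methylpyrrolidone, Dowanol DPM), diluted with 0.25% or 1% sodium lauryl ether sulphate plus 1% ammonium sulphate.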

[2] = system: Chenopodium album (CHEAL); conditions: Chenopodium album, 312 h; post-emergence application, 500 g/Ha, evaluated after 13 days; read-out: Control of weed species CHEAL (100=total damage to plant; 0=no damage to plant)
Outline: as §1

[3] = system: Digitaria sanguinalis (DIGSA); conditions: Digitaria sanguinalis, 312 h; post-emergence application, 500 g/Ha, evaluated after 13 days; read-out: Control of weed species DIGSA (100=total damage to plant; 0=no damage to plant)
Outline: as §1

[4] = system: Echinochloa crus-galli (ECHCG); conditions: Echinochloa crus-galli, 312 h; post-emergence application, 500 g/Ha, evaluated after 13 days; read-out: Control of weed species ECHCG (100=total damage to plant; 0=no damage to plant)
Outline: as §1

Eleusine indica (ELEIN) = conditions: Eleusine indica, 312 h; post-emergence application, 500 g/Ha, evaluated after 13 days; read-out: Control of weed species ELEIN (100=total damage to plant; 0=no damage to plant)
Outline: as §1

[5] = system: Euphorbia heterophylla (EPHHL); conditions: Euphorbia heterophylla, 312 h; post-emergence application, 500 g/Ha, evaluated after 13 days; read-out: Control of weed species EPHHL (100=total damage to plant; 0=no damage to plant)
Outline: as §1

[6] = system: Ipomoea hederacea (IPOHE); conditions: Ipomoea hederacea, 312 h; post-emergence application, 500 g/Ha, evaluated after 13 days; read-out: Control of weed species IPOHE (100=total damage to plant; 0=no damage to plant)
Outline: as §1

Lolium perenne (LOLPE) = conditions: Lolium perenne, 312 h; post-emergence application, 500 g/Ha, evaluated after 13 days; read-out: Control of weed species LOLPE (100=total damage to plant; 0=no damage to plant)
Outline: as §1

Setaria faberi (SETFA) = conditions: Setaria faberi, 312 h; post-emergence application, 500 g/Ha, evaluated after 13 days; read-out: Control of weed species SETFA (100=total damage to plant; 0=no damage to plant)
Outline: as §1

| SMILES | pest or weed control at 500 g/ha [1] | pest or weed control at 500 g/ha [2] | pest or weed control at 500 g/ha [3] | pest or weed control at 500 g/ha [4] | pest or weed control at 500 g/ha (Eleusine indica (ELEIN)) | pest or weed control at 500 g/ha [5] | pest or weed control at 500 g/ha [6] | pest or weed control at 500 g/ha (Lolium perenne (LOLPE)) | pest or weed control at 500 g/ha (Setaria faberi (SETFA)) |
| --- | --- | --- | --- | --- | --- | --- | --- | --- | --- |
| CS(=O)(=O)CCNC(=O)c1cc[n+](CCNS(=O)(=O)[O-])nc1 [Compound A136] | 0% | 100% | 100% | 50% | 80% | 60% | 30% | 70% | 30% |
| CC1(C)CC1NC(=O)c1cc[n+](CCC(=O)O)nc1 (stereo not drawn) [Compound A137] | 100% | 90% | 100% | 100% | 100% | 10% | 0% | 100% | 70% |
| COCCNC(=O)c1cc[n+](CCCOS(=O)(=O)[O-])nc1 [Compound A138] | 30% | 70% | 70% | 30% | 60% | 60% | 60% | 60% | 80% |
| COCCNC(=O)c1cc[n+](CCNS(=O)(=O)[O-])nc1 [Compound A139] | 90% | 100% | 90% | 70% | 100% | 80% | 40% | 20% | 70% |
| C=CCNC(=O)c1cc[n+](CCNS(=O)(=O)[O-])nc1 [Compound A140] | 100% | 100% | 90% | 70% | 100% | 90% | 60% | 20% | 90% |
| C#CCNC(=O)c1cc[n+](CCNS(=O)(=O)[O-])nc1 [Compound A141] | 100% | 100% | 70% | 40% | 90% | 60% | 70% | 70% | 40% |
| O=C(O)CC[n+]1ccc(C(=O)NCCc2nccs2)cn1 [Compound A143] | 100% | 90% | 60% | 40% | 100% | 50% | 40% | 50% | 80% |
| Cn1ncnc1CCNC(=O)c1cc[n+](CCC(=O)O)nc1 [Compound A144] | 100% | 100% | 80% | 60% | 100% | 90% | 50% | 60% | 90% |
| O=C(O)CC[n+]1ccc(C(=O)NCCc2ncccn2)cn1 [Compound A145] | 100% | 100% | 100% | 60% | 100% | 0% | 30% | 70% | 80% |
| O=C(O)CC[n+]1ccc(C(=O)NCc2nccs2)cn1 [Compound A146] | 80% | 80% | 100% | 100% | 80% | 20% | 20% | 100% | 90% |
